In data set [1] the test system is cancer patients. The settings on record: cited from earlier work; for Patients who developed pneumonia: refractory chronic lymphocytic leukemia.
The conditions of data set [2]: in vivo; cited from earlier work.
Data set [3] in a line: Solubility study of calcitriol in the formulations (light microscopy). It is filed as physicochemical. As to conditions: each formulation of Table 3; prepared at 50° C., cooled to room temperature; highest concentration tested. As for the experimental part: To further assess the formulations of calcitriol, a solubility study was conducted to evaluate the amount of calcitriol soluble in each formulation. Calcitriol concentrations from 0.1 to 0.6 μg calcitriol/mg fomulation were prepared by heating the formulations to 50° C. followed by addition of the appropriate mass of calcitriol. The formulations were then allowed to cool to room temperature and the presence of undissolved calcitriol was determined by a light microscope with and without polarizing light. For each formulation, calcitriol was soluble at the highest concentration tested, 0.6 μg calcitriol/mg formulation.

Data set [4] deals with cancer patients. The settings on record: cited from earlier work.
A further data set has as its system patients. The settings on record: administered doses; Glover 1988; cited from earlier work.
Data set [5] has as its system patients with androgen independent prostate cancer. The settings on record: Taxotere 36 mg/m^2 weekly, calcitriol 45 μg weekly by HDPA.
Text: Two hundred fifty patients with androgen independent prostate cancer were enrolled in a randomized placebo controlled trial at 48 centers in the United States and Canada. All patients in the study received chemotherapy treatment with weekly Taxotere®, a drug in the taxoid class of chemotherapeutic agents. […] Oral dexamethasone was also given along with the Taxotere® to minimize certain side effects (allergic reactions and fluid retention) associated with Taxotere®.
In addition to Taxotere® and dexamethasone, half of the patients were randomly treated with calcitriol and the other half received a placebo. Calcitriol was administered as three capsules of 15 μg each once a week on the day prior to chemotherapy. […] The same Taxotere® dose of 36 mg/m^2 body surface area was administered to the patients receiving Taxotere® and placebo or Taxotere® in combination with calcitriol. Drugs were administered for three weeks out of a four week cycle, with calcitriol being administered on days 1, 7, and 21 and Taxotere® being administered on days 2, 8, and 22.
The mark [6] stands for this setting: acute promyelocytic leukemia, Tallman 1997.

Read-outs that look alike come from different tables or passages of the source. Where only a bound is given, the exact number is not on record here.

As for `Nc1nc(F)nc2c1ncn2[C@@H]1O[C@H](COP(=O)(O)O)[C@@H](O)[C@@H]1O` [fludarabine phosphate], the figures for the “Patients who developed pneumonia” value in the data set on cancer patients [1] (15-25 mg/m^2 daily for five days every 28 days) and with cancer patients [1] (22-40 mg/m^2 daily for five days every 28 days) were 22% and 16%, respectively.

As to `C=C1/C(=C\C=C2/CCC[C@]3(C)C([C@H](C)CC#CC(C)(C)O)=CC[C@@H]23)C[C@@H](O)C[C@@H]1O` [Ro23-7553], the “Hypercalcemic effect, in words” value in data set [2] is recorded as “reduced hypercalcemic effect”.

Take “gemtuzumab: cancer drug given to acute myelogenous patients; product Mylotarg™, Wyeth-Ayerst”: in the data set on cancer patients [1] (acute myelogenous patients, 9 mg/m^2 IV over 2 hours, two doses 14 days apart, Mylotarg package insert), the “Patients with grade III or IV pneumonia” value is 7%.

With `C=C1/C(=C\C=C2/CCC[C@]3(C)[C@@H]([C@H](C)CCCC(C)(C)O)CC[C@@H]23)C[C@@H](O)C[C@@H]1O` [calcitriol, 1α,25-hydroxyvitamin D3], the “Calcitriol soluble in formulation” value in data set [3] is given as ≥ 0.6 μg calcitriol/mg formulation.

On to `Nc1ccn([C@@H]2O[C@H](CO)[C@@H](O)C2(F)F)c(=O)n1` [gemcitabine], for which the “Patients with grade III-IV respiratory toxicity” value in the data set on cancer patients [4] (out of 40 bladder cancer patients, 1200 mg/m^2 IV weekly times three on a 4-week cycle, Stadler 1997) is 2 patients.

`NCCCNCCSP(=O)(O)O` [WR 2721, S-2-(3-aminopropylamino)ethylphosphorothioic acid]: in the data set with patients, the Patients with emesis is 48% and the Patients with hypotension was 7%.

Take `CC(=O)O[C@@]12CO[C@@H]1C[C@H](O)[C@@]1(C)C(=O)[C@H](O)C3=C(C)[C@@H](OC(=O)[C@H](O)[C@@H](NC(=O)OC(C)(C)C)c4ccccc4)C[C@@](O)([C@@H](OC(=O)c4ccccc4)[C@H]21)C3(C)C` [Taxotere®]: in data set [5], the “Patients hospitalized for dyspnea” value is “four” and the “Patients who developed ARDS” value is “One”.

As to `CC1=C(/C=C/C(C)=C/C=C/C(C)=C/C(=O)O)C(C)(C)CCC1` [all-trans-retinoic acid], in the data set on cancer patients [4] (setting [6]), the “Patients who developed grade III or IV pulmonary toxicity (total)” value is on record as “Twenty”, the “Patients with lethal pulmonary toxicity” value is given as 2%, the “Patients with life-threatening pulmonary toxicity” value is reported as 11% and the “Patients with severe pulmonary toxicity” value is given as 7%.

The values above are taken from patent US20090069276A1, “Treatment, prevention and amelioration of pulmonary disorders associated with chemotherapy or radiotherapy with active vitamin D compounds or mimics thereof” (Novacea, Inc., priority 2005, published 2009).
